Test results taken from ChEMBL document CHEMBL4311992, “Discovery of 3-(((9H-purin-6-yl)amino)methyl)-4,6-dimethylpyridin-2(1H)-one derivatives as novel tubulin polymerization inhibitors for treatment of cancer” (Eur J Med Chem, 2019).
Active and inactive are the calls of the source. The rule behind the calls is not given here.

Columns and labels:
Mus musculus [1] = organism: Mus musculus; test: Inhibition of recombinant full-length mouse PI3K p110beta/p85alpha R123L mutant assessed as residual activity at 10 uM using phosphatidylinositol-4, 5-bisphosphate as substrate measured after 40 mins by HTRF assay
[2] = molecular target: MAP/microtubule affinity-regulating kinase 4 (Homo sapiens) (UniProt Q96L34); test: Inhibition of recombinant full-length human MARK4 assessed as residual activity at 10 uM using KKKVSRSGLYRSPSMPENLNRPR as substrate measured after 40 mins in presence of [gamma33P]ATP by scintillation counting method
[3] = molecular target: Cyclin-dependent kinase 14/Cyclin-Y (Homo sapiens) (UniProt O94921+Q8ND76); test: Inhibition of human CDK14/cyclinY assessed as residual activity at 10 uM by radiometric method; assay type: protein-complex assay
[4] = Toxicity in nude BALB/c mouse assessed as change in platelet level at 40 to 80 mg/kg, po once daily for 4 weeks measured post-last dose; assay type: organism-based; settings: in vivo, 672 h
[5] = molecular target: Serine/threonine-protein kinase TAO1 (Homo sapiens) (UniProt Q7L7X3); test: Inhibition of human TAO1 (1 to 327 residues) using myelin basic protein as substrate measured after 40 mins in presence of [gamma33P]ATP by scintillation counting method; parameters: scale not given: the % may be the effect or the level left
SW-620 [6] = test: Induction of apoptosis in human SW620 cells assessed as viable cells at 100 nM measured after 48 hrs by Annexin V-FITC/propidium iodide staining-based flow cytometry (reference value: 94.7%); assay type: functional; settings: SW-620, 48 h, read-out: Activity
HCT-116 [7] = test: Cell cycle arrest in human HCT116 cells assessed as up regulation of cdc25 expression up to 150 nM after 24 hrs by Western blot analysis; assay type: functional, cell-based
[8] = Toxicity in nude BALB/c mouse assessed as change in AST level at 40 to 80 mg/kg, po once daily for 4 weeks measured post-last dose; assay type: organism-based; settings: in vivo, 672 h
[9] = system: Mitogen-activated protein kinase 14 (Homo sapiens), Q16539 [T106M]; test: Inhibition of recombinant full-length human SAPK2a T106M mutant assessed as residual activity at 10 uM using myelin basic protein as substrate measured after 40 mins in presence of [gamma33P]ATP by scintillation counting method
[10] = molecular target: MAPK/MAK/MRK overlapping kinase (Homo sapiens) (UniProt Q9UQ07); test: Inhibition of recombinant human MOK (1 to 343 residues) assessed as residual activity at 10 uM using RSRSRSRSRSRSRSR as substrate measured after 40 mins in presence of [gamma33P]ATP by scintillation counting method
HCT-116 [11] = test: Antitumor activity against human HCT116 cells xenografted in nude BALB/c mouse assessed as reduction in tumor weight at 80 mg/kg, po administered once daily for 4 weeks measured every 3 days during compound dosing; assay type: functional, organism-based
[12] = molecular target: Serine/threonine-protein kinase MAK (Homo sapiens) (UniProt P20794); test: Inhibition of recombinant full-length human MAK assessed as residual activity at 10 uM using RRRFRPASPLRGPPK as substrate measured after 120 mins in presence of [gamma33P]ATP by scintillation counting method
Homo sapiens = organism: Homo sapiens; test: Inhibition of recombinant full-length human PKBalpha S478G mutant assessed as residual activity at 10 uM using GRPRTSSFAEGKK as substrate measured after 40 mins in presence of [gamma33P]ATP by scintillation counting method
SW-620 [13] = test: Induction of apoptosis in human SW620 cells assessed as viable cells at 25 nM measured after 48 hrs by Annexin V-FITC/propidium iodide staining-based flow cytometry (reference value: 94.7%); assay type: functional; settings: SW-620, 48 h, read-out: Activity
[14] = molecular target: Fibroblast growth factor receptor 3 (Homo sapiens) (UniProt P22607); test: Inhibition of recombinant human FGFR3 (447 to 761 residues) assessed as residual activity at 10 uM using poly(Glu, Tyr) 4:1 as substrate measured after 40 mins in presence of [gamma33P]ATP by scintillation counting method
[15] = molecular target: Serine/threonine-protein kinase SIK3 (Homo sapiens) (UniProt Q9Y2K2); test: Inhibition of human SIK3 (1 to 307 residues) using KKKVSRSGLYRSPSMPENLNRPR as substrate measured after 40 mins in presence of [gamma33P]ATP by scintillation counting method; parameters: scale not given: the % may be the effect or the level left
HCT-116 [16] = test: Induction of apoptosis in human HCT116 cells assessed as necrotic cells at 25 nM measured after 48 hrs by Annexin V-FITC/propidium iodide staining-based flow cytometry (reference value: 1.16%); assay type: functional
[17] = molecular target: Ephrin type-A receptor 8 (Homo sapiens) (UniProt P29322); test: Inhibition of recombinant human EphA8 (615 to 911 residues) assessed as residual activity at 10 uM using KTFCGTPEYLAPEVRREPRILSEEEQEMFRDFDYIADWC as substrate measured after 40 mins in presence of [gamma33P]ATP by scintillation counting method
Mus musculus [18] = organism: Mus musculus; test: Inhibition of recombinant full-length mouse PI3K p110alpha/p85alpha assessed as residual activity at 10 uM using phosphatidylinositol-4, 5-bisphosphate as substrate measured after 40 mins by HTRF assay
[19] = molecular target: Histone-lysine N-methyltransferase EZH2 (Homo sapiens) (UniProt Q15910); test: Inhibition of EZH2 (unknown origin) at 1 uM relative to control
HCT-116 [20] = test: Induction of apoptosis in human HCT116 cells assessed as decrease in Bcl2 expression up to 200 nM measured after 48 hrs by Western blot analysis; assay type: functional, cell-based
[21] = molecular target: Epidermal growth factor receptor (Homo sapiens) (UniProt P00533); test: Inhibition of recombinant human EGFR (696 to end residues) assessed as residual activity at 10 uM using poly(Glu, Tyr) 4:1 as substrate measured after 40 mins in presence of [gamma33P]ATP by scintillation counting method
[22] = molecular target: Serine/threonine-protein kinase Nek3 (Homo sapiens) (UniProt P51956); test: Inhibition of recombinant full-length human NEK3 assessed as residual activity at 10 uM using myelin basic protein as substrate measured after 40 mins in presence of [gamma33P]ATP by scintillation counting method
SW-620 [23] = test: Induction of apoptosis in human SW620 cells assessed as viable cells at 50 nM measured after 48 hrs by Annexin V-FITC/propidium iodide staining-based flow cytometry (reference value: 94.7%); assay type: functional; settings: SW-620, 48 h, read-out: Activity
Mus musculus [24] = organism: Mus musculus; test: Inhibition of recombinant mouse ABL L782P/G784R/W785L/L786V mutant (27 to end residues) assessed as residual activity at 10 uM using EAIYAAPFAKKK as substrate measured after 40 mins in presence of [gamma33P]ATP by scintillation counting method
[25] = molecular target: Cyclin-dependent kinase-like 2 (Homo sapiens) (UniProt Q92772); test: Inhibition of human CDKL2 assessed as residual activity at 10 uM by radiometric method
[26] = molecular target: Serine/threonine-protein kinase 26 (Homo sapiens) (UniProt Q9P289); test: Inhibition of recombinant human MST4 (4 to 304 residues) assessed as residual activity at 10 uM using RLGRDKYKTLRQIRQ as substrate measured after 40 mins in presence of [gamma33P]ATP by scintillation counting method

Chain of Histone-lysine N-methyltransferase EZH2 (Homo sapiens) (Q15910 whole entry, looked up): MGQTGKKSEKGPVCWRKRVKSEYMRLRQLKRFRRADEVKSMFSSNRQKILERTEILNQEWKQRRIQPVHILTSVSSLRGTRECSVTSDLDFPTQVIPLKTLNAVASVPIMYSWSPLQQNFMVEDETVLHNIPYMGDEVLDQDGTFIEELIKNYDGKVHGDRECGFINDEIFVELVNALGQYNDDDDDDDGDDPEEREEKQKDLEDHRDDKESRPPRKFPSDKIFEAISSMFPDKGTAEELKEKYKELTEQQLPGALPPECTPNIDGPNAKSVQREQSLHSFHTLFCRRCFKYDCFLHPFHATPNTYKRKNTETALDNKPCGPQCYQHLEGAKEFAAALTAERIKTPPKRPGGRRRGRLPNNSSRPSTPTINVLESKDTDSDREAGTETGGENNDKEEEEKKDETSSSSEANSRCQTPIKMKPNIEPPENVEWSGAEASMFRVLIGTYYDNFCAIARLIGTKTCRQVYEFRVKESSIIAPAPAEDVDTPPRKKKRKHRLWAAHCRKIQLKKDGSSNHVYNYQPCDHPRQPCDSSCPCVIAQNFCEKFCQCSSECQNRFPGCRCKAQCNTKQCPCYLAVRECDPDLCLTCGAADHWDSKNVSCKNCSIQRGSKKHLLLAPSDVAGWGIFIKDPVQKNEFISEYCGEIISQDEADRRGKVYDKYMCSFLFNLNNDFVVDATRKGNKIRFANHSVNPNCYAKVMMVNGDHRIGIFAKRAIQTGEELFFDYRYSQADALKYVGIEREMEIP
Chain of Serine/threonine-protein kinase SIK3 (Homo sapiens) (Q9Y2K2 whole entry, looked up, the tested form may be a part): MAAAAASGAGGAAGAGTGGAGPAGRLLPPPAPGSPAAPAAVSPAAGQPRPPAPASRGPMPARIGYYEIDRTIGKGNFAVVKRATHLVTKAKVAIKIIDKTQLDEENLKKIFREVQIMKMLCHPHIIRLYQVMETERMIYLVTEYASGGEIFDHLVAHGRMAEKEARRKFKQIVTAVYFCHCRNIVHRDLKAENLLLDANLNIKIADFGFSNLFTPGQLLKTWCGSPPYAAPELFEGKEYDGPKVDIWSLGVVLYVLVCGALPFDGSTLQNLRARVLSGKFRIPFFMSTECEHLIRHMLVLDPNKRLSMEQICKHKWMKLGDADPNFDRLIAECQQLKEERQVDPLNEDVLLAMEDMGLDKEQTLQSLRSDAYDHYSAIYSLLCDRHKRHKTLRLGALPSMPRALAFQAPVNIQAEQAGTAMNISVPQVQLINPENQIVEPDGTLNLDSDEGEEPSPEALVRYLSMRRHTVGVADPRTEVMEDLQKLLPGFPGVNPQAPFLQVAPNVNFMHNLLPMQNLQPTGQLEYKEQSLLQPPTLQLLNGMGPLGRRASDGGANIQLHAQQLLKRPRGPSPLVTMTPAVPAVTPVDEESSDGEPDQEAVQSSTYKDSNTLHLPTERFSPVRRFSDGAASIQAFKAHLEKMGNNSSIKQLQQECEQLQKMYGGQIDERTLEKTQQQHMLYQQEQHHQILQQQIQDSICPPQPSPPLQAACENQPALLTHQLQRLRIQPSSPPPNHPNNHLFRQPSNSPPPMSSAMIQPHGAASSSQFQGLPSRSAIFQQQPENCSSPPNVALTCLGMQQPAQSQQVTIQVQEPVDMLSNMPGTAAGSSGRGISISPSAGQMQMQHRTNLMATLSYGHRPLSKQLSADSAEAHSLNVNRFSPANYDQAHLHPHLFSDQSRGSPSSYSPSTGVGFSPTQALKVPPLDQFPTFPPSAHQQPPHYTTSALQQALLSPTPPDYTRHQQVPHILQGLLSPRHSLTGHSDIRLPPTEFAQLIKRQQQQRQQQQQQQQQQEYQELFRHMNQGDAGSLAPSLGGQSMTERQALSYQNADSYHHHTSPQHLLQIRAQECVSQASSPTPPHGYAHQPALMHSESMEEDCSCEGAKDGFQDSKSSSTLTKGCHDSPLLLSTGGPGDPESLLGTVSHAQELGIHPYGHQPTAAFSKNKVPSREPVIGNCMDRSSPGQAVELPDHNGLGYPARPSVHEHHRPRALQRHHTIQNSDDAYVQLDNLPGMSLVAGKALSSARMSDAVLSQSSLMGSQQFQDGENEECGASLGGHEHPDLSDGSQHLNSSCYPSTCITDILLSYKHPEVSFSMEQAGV
Chain of MAP/microtubule affinity-regulating kinase 4 (Homo sapiens) (Q96L34 whole entry): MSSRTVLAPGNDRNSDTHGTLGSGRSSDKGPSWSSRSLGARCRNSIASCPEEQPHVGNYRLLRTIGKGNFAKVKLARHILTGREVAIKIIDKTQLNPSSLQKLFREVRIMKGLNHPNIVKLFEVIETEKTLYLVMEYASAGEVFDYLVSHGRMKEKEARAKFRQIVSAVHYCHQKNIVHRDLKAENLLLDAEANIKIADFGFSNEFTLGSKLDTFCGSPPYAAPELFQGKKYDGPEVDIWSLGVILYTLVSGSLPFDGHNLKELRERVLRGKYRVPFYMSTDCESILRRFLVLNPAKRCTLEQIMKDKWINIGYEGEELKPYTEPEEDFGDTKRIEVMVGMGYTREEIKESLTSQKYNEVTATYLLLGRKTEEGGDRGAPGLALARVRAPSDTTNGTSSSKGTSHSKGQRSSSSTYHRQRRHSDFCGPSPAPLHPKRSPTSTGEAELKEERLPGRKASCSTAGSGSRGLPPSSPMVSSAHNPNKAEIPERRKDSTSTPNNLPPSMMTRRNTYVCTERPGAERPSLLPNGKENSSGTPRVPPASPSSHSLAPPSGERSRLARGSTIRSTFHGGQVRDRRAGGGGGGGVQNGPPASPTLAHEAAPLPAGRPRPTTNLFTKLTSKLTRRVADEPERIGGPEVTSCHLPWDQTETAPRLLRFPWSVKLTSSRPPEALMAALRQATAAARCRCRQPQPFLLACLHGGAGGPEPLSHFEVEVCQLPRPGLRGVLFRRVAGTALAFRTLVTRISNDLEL
Chain of Ephrin type-A receptor 8 (Homo sapiens) (P29322 whole entry, the tested form may be a part): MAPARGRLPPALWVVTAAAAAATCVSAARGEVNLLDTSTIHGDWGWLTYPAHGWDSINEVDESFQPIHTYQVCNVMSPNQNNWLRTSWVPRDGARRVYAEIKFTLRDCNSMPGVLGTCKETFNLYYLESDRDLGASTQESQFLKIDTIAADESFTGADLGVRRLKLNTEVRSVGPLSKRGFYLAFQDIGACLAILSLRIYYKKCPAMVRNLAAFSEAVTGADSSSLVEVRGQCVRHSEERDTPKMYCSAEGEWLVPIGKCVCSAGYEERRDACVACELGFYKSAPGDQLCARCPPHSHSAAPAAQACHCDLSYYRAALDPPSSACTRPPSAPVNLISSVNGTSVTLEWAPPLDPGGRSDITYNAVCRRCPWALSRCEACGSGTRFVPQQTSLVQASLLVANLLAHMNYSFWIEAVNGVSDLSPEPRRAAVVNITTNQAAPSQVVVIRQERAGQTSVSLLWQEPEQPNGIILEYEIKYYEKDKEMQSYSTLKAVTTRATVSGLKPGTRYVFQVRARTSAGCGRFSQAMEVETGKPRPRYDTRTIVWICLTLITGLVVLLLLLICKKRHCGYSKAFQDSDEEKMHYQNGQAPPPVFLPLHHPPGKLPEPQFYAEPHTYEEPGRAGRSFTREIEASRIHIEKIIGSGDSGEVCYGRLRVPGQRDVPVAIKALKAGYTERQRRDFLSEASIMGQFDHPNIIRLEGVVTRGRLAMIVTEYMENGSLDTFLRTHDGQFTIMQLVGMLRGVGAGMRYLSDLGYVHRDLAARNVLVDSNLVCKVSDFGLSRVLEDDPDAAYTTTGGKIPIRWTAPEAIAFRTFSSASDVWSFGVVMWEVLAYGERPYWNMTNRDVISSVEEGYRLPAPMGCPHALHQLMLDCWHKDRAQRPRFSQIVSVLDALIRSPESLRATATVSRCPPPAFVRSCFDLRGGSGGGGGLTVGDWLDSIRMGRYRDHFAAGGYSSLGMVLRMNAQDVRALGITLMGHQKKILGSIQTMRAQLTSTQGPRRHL
Chain of Serine/threonine-protein kinase TAO1 (Homo sapiens) (Q7L7X3 whole entry, the tested form may be a part): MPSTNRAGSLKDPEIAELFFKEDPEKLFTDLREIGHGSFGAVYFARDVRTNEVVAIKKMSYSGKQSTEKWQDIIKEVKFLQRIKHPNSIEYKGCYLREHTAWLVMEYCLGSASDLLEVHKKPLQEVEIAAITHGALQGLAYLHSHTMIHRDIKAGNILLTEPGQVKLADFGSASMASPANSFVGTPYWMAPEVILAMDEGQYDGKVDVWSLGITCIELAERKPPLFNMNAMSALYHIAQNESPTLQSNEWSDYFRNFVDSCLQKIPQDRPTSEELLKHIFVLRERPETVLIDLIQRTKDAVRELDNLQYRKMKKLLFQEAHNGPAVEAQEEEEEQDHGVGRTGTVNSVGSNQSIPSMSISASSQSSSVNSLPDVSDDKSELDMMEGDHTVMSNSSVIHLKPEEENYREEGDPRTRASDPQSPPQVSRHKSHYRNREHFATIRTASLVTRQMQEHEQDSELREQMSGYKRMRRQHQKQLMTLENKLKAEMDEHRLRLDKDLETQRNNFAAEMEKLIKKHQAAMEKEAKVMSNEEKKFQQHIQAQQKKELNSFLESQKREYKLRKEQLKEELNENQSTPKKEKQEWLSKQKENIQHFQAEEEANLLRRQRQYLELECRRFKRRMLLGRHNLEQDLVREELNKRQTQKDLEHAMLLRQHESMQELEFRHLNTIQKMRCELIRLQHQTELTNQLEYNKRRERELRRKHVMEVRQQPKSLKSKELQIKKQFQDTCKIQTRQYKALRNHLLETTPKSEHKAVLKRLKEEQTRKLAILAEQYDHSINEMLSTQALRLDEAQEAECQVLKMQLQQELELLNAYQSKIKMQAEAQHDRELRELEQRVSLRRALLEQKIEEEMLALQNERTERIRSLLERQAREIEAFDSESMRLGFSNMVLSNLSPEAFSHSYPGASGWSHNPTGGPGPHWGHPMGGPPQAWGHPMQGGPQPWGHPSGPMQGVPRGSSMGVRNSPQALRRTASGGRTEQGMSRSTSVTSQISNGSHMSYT

Compound: Cc1cc(C)c(CNc2nc(Cl)nc3c2ncn3C2CCCC2)c(=O)[nH]1
- Activity (Mus musculus [1]): 104%
- Activity [2]: 123%
- Activity [3]: 96.5%
- Activity [4]: Non-Toxic
- Activity [5]: 93.5%
- viability at 0.1 µM (SW-620 [6]): 66%
- Activity (HCT-116 [7]): Active
- Activity [8]: Non-Toxic
- Activity [9]: 100%
- Activity [10]: 104%
- Activity (HCT-116 [11]): Active
- Activity [12]: 106%
- Activity (Homo sapiens): 105%
- viability at 0.025 µM (SW-620 [13]): 61.8%
- Activity [14]: 94.5%
- Activity [15]: 119%
- Activity (HCT-116 [16]): 0.846%
- Activity [17]: 97%
- Activity (Mus musculus [18]): 99.5%
- inhibition [19]: -10%
- Activity (HCT-116 [20]): Active
- Activity [21]: 114%
- Activity [22]: 102%
- viability at 0.05 µM (SW-620 [23]): 83.4%
- Activity (Mus musculus [24]): 101%
- Activity [25]: 131%
- Activity [26]: 132%
